Read-outs that look alike come from different tables or passages of the source.

The ED50 is the dose at which the effect has come halfway, by size or by number of responders.

What all share (type): in vivo, rat (male FW 49)
In test [1] the test system is Carrageenin-induced edema of the hind paw of the rat. Nature of the test: Carrageenin-induced edema of the hind paw of the rat (anti-exudative effect). Conditions: 60 minutes before provocation, swelling 3 hours after; for ED35: Rattus norvegicus, po, 3 h, read-out: Carrageenin edema ED35 per os; for Carrageenin edema ED35 per os: oral. The method, then: (§1) The compunds were tested for their anti-exudative effect on Kaolin-induced edema and carrageenin-induced edema in the hind paw of the rat after oral administration to the rat.
(§2) The test compound was administered orally to male FW 49 rats weighing 120-150 gm by means of an esophageal tube 30 minutes before inducing the edema. 5 hours after inducing the edema the average size of the swelling in the rats treated with the test compound was compared with the size of the swelling in blind-treated control animals. By graphic extrapolation the dose leading to a 35% of the swelling (ED35) was calculated from the percentage reduction in the size of the swelling caused by the administration of different doses.
b. Carrageenin-induced edema of the hind paw of the rat
(§3) The carrageenin edema was induced according to the method of Winder et al. [Proc. Soc. exp. Biol. Med. 111, 544 (1962)] by subplanar injection of 0.05 ml of a 1% solution of carrageenin in a 0.85% solution of sodium chloride. The test compound was administered 60 minutes before the provocation of the edema.
(§4) For the calculation of the reductive effect on the edema, the size of the swelling was measured 3 hours after the provocation of the edema. All other details were the same as described above in the case of the kaolin edema.
A general note: In the carrageenan paw model, swelling and tenderness develop within hours.

The test system of test [2] is Kaolin-induced edema of the hind paw of the rat. Nature of the test: Kaolin-induced edema of the hind paw of the rat (anti-exudative effect). The conditions noted are these: 30 minutes before inducing edema, swelling 5 hours after; for ED35: Rattus norvegicus, po, 5 h, read-out: Kaolin edema ED35 per os; for Kaolin edema ED35 per os: oral. As to the method: as §1
a. Kaolin-induced edema of the hind paw of the rat
(§5) The kaolin edema was induced according to the method given by Hillebrecht [Arzneimittel-Forsch. 4, 607 (1954)] by subplanar injection of 0.05 ml of a 10% suspension of kaolin in a 0.85% sodium chloride solution. Measurement of the thickness of the paws was effected using the technique of Doepfner and Cerletti [Int. Arch. Allergy Immunol. 12, 89 (1958)].
as §2

The subject of test [3] is Kaolin edema and carrageenin edema of the hind paw of the rat. In words: Average value of kaolin edema and carrageenin edema. The conditions noted are these: per os, Table I; for ED35: Rattus norvegicus. The method, then:
as §1, §5, §2, §3, §4

The test system of the next test is Adjuvant arthritis-rat. Nature of the test: Adjuvant arthritis test on rats (M.butyricum). Conditions: po, 504 h, 21st day, once daily for 20 days by esophageal tube. The method, then:
The adjuvant arthritis tests on rats were performed in analogy to the procedure described by Rosenthale and Nagra [Proc. Soc. exp. Biol. Med. 125, 149 (1967)].
Male FW 49-rats were given a subplantar injection of 0.1 ml of a 1% suspension of M.butyricum in viscous paraffin oil in a hind paw. The test compound was administered, beginning with the M.butyricum injection, once daily for 20 days by esophageal tube.
On the 21st day after inducing the arthritis, the volumes of the right paw (non-specific primary reaction at the place of injection) and the left paw (immunologically predicated specific secondary reaction) of the animals treated with the test compound were compared with those of the blind-treated control animals. From the swelling reduction obtained with the various doses, an ED50 was graphically determined.

[4] abbreviates: left paw volume, read-out: Adjuvant arthritis-rat ED50 per os, Secondary reaction.
The mark [5] stands for this setting: right paw volume, read-out: Adjuvant arthritis-rat ED50 per os, Primary reaction.

Consider `CC(=O)/C=C(\C)c1ccc([C@@H]2CCCC[C@H]2C)cc1` (relative stereo) [BB, (e,e)-4-[4-(2-methyl-cyclohexyl)-phenyl]-3-pentene-2-one], for which the figures for the ED35 in test [1] (Table I), in test [2] (Table I) and in test [3] were 13 mg/kg, 19 mg/kg and 16 mg/kg, respectively.
In the same order, the values of `CC(O)/C=C/c1ccc(-c2ccccc2)c(F)c1` (stereo not drawn) [A, (e)-4-(2-fluoro-4-biphenylyl)-3-butene-2-ol] are 12.4 mg/kg, 15 mg/kg and 13.7 mg/kg.
In the same order, the values of `CC(O)CC(C)c1ccc(C2CCCCC2)c(Br)c1` (stereo not drawn) [AA, 4-(3-bromo-4-cyclohexyl-phenyl)-2-pentanol] are 18.5 mg/kg, 28 mg/kg and 23.2 mg/kg.
Regarding `CC(O)CCc1ccc(-c2ccccc2)c(F)c1` (stereo not drawn) [B, 4-(2-fluoro-4-biphenylyl)-2-butanol], the figures for the ED35 in test [1] (Table I), in test [2] (Table I) and in test [3] were 12 mg/kg, 16 mg/kg and 14 mg/kg, respectively.
The like results for `CC(O)CCCCCCc1ccc(-c2ccccc2F)cc1` (stereo not drawn) [C, 8-(2'-fluoro-4-biphenylyl)-2-octanol] were, in that order, 17 mg/kg, 15 mg/kg and 16 mg/kg.
The like results for `CC(=O)CC(C)c1ccc(C2CCCCC2C)cc1` (stereo not drawn) [CC, (e)-4-[4-(2-methyl-cyclohexyl)-phenyl]-2-pentanone] were, in that order, 21 mg/kg, 29 mg/kg and 25 mg/kg.
As to `CC(=O)CCCCc1ccc(-c2ccccc2F)cc1` [D, 6-(2'-fluoro-4-biphenylyl)-2-hexanone], the results for the ED35 in test [1] (Table I), in test [2] (Table I) and in test [3] were 10.5 mg/kg, 9 mg/kg and 9.75 mg/kg, respectively.
As to `CC(=O)/C=C(\C)c1ccc(CC(C)C)c(Cl)c1` [DD, (e)-4-(3-chloro-4-isobutyl-phenyl)-3-pentene-2-one], the ED35 in test [1] (Table I) was 19 mg/kg; in test [2] (Table I) it was 50 mg/kg; in test [3], 34.5 mg/kg.
In the case of `CC(=O)CC(C)c1ccc(-c2ccccc2)cc1` (stereo not drawn) [E, 4-(4-biphenylyl)-2-pentanone], the ED35 in test [1] (Table I) stood at 15 mg/kg; in test [1] (Table II) it was 15 mg/kg; in test [2] (Table I), 21 mg/kg; in test [2] (Table II) it was 21 mg/kg; in test [3], 18 mg/kg. Besides, the 50% effective dose (ED50) with Adjuvant arthritis-rat (setting [4]) and in the test on Adjuvant arthritis-rat (setting [5]) was below 4 mg/kg throughout.
For `C/C(=C\C(C)O)c1ccc(CC(C)C)c(Cl)c1` (stereo not drawn) [EE, (e)-4-(3-chloro-4-isobutyl-phenyl)-3-pentane-2-ol], the ED35 in test [1] (Table I) was found to be 52 mg/kg; in test [2] (Table I) it was 54 mg/kg; in test [3], 53 mg/kg.
In the same order, the values of `CC(=O)CCCCCCc1ccc(-c2ccccc2F)cc1` [F, 8-(2'-fluoro-4-biphenylyl)-2-octanone] are 14.5 mg/kg, 9.8 mg/kg and 12.2 mg/kg.
Take `C/C(=C\C(C)O)c1ccc(C2CCCCC2)cc1` (stereo not drawn) [FF, (e)-4-(4-cyclohexyl-phenyl)-3-pentene-2-ol]: the “Carrageenin edema ED35 per os” value in test [1] (Table I) is 35 mgm/kg. Moreover, in test [2] (Table I), the “Kaolin edema ED35 per os” value was 49 mgm/kg. Further, in test [3], the “Average value ED35” value came to 42 mgm/kg.
As for `CC(=O)/C=C(\C)c1ccc(-c2ccccc2)cc1` [G, (e)-4-(4-biphenylyl)-3-pentene-2-one], the ED35 is 8.6 mg/kg in test [1] (Table I), 23.5 mg/kg in test [2] (Table I) and 16.1 mg/kg in test [3].
In the case of `CC(=O)/C=C(\C)c1ccc(-c2ccccc2F)cc1` [H, (e)-4-(2'-fluoro-4-biphenylyl)-3-pentene-2-one], the ED35 came out at 8.9 mg/kg in test [1] (Table I); 11 mg/kg in test [1] (Table II); 37 mg/kg in test [2] (Table I); 37 mg/kg in test [2] (Table II); 22.9 mg/kg in test [3]. Moreover, the ED50 in the test on Adjuvant arthritis-rat (setting [4]) was below 1 mg/kg; with Adjuvant arthritis-rat (setting [5]), below 2 mg/kg.
Regarding `CC(O)CC(C)c1ccc(-c2ccccc2)c(F)c1` (stereo not drawn) [I, 4-(2-fluoro-4-biphenylyl)-2-pentanol], the ED35 in test [1] (Table I) stood at 16.5 mg/kg; in test [2] (Table I), 17 mg/kg; in test [3] it was 16.8 mg/kg.
In the case of `C/C(=C\C(C)O)c1ccc(-c2ccccc2F)cc1` (stereo not drawn) [K, (e)-4-(2'-fluoro-4-biphenylyl)-3-pentene-2-ol], the ED35 in test [1] (Table I) was 12.8 mg/kg; in test [1] (Table II), 17 mg/kg; in test [2] (Table I), 17.5 mg/kg; in test [2] (Table II) it was 17.5 mg/kg; in test [3], 15.2 mg/kg. For the same compound, the ED50 was below 2 mg/kg in the test with Adjuvant arthritis-rat (setting [4]) and below 1.5 mg/kg in the test on Adjuvant arthritis-rat (setting [5]).
`CC(=O)/C=C(\C)c1ccc(-c2ccccc2)c(Cl)c1` [L, (e)-4-(2-chloro-4-biphenylyl)-3-pentene-2-one]: the ED35 was 5.6 mg/kg in test [1] (Table I), 15.5 mg/kg in test [2] (Table I) and 10.6 mg/kg in test [3].
The like results for `C/C(=C\C(C)O)c1ccc(-c2ccccc2)c(Cl)c1` (stereo not drawn) [M, (e)-4-(2-chloro-4-biphenylyl)-3-pentene-2-ol] were, in that order, 23 mg/kg, 26 mg/kg and 24.5 mg/kg.
In the same order, the values of `CC(=O)CC(C)c1ccc(-c2ccccc2)c(Cl)c1` (stereo not drawn) [N, 4-(2-chloro-4-biphenylyl)-2-pentanone] are 16.5 mg/kg, 31.5 mg/kg and 24 mg/kg.
Take `CC(O)CC(C)c1ccc(-c2ccccc2)c(Cl)c1` (stereo not drawn) [O, 4(2-chloro-4-biphenylyl)-2-pentanol]: the ED35 in test [2] (Table I) turned out to be 48 mg/kg.
For `CC(=O)/C=C(\C)c1ccc(C2CCCCC2)c(Cl)c1` [P, (e)-4-(3-chloro-4-cyclohexyl-phenyl)-3-pentene-2-one], the ED35 was 8.6 mg/kg in test [1] (Table I); 8.6 mg/kg in test [1] (Table II); 17 mg/kg in test [2] (Table I); 17 mg/kg in test [2] (Table II); 12.8 mg/kg in test [3]. The ED50 with Adjuvant arthritis-rat (setting [4]) was below 0.6 mg/kg; in the test with Adjuvant arthritis-rat (setting [5]) it was below 0.7 mg/kg.
As for `CC(O)CC(C)c1ccc(C2CCCCC2)c(Cl)c1` (stereo not drawn) [S, 4-(3-chloro-4-cyclohexyl-phenyl)-2-pentanol], the ED35 in test [1] (Table I) turned out to be 7 mg/kg; in test [2] (Table I), 7.6 mg/kg; in test [3], 7.3 mg/kg.
Turning to `CC(=O)/C=C(\C)c1ccc(C2CCCCC2)cc1` [T, (e)-4-(4-cyclohexyl-phenyl)-3-pentene-2one], the values for the ED35 in test [1] (Table I), in test [2] (Table I) and in test [3] were 12 mg/kg, 12.5 mg/kg and 12.2 mg/kg, respectively.
On to `CC(=O)CC(C)c1ccc(C2CCCCC2)cc1` (stereo not drawn) [U, 4-(4-cyclohexyl-phenyl)-2-pentanone], for which, in test [2] (Table I), the ED35 came to 15 mg/kg.
Turning to `C/C(=C\C(C)O)c1ccc(C2CCCCC2)cc1` (stereo not drawn) [V, (e)-4-(4-cyclohexyl-phenyl)-3-pentene-2-ol], the “Carrageenin edema ED35 per os” value in test [1] (Table I) stood at 7.6 mgm/kg. The “Kaolin edema ED35 per os” value in test [2] (Table I) is given as 13.3 mgm/kg. Also, in test [3], the “Average value ED35” value was 10.45 mgm/kg.
For the compound `CC(O)CC(C)c1ccc(C2CCCCC2)cc1` (stereo not drawn) [W, 4-(4-cyclohexyl-phenyl)-2-pentanol], in test [2] (Table I), the ED35 is 26 mg/kg.
Consider `CC(=O)/C=C(\C)c1ccc(C2CCCCC2)c(Br)c1` [X, (e)-4-(3-bromo-4-cyclohexyl-phenyl)-3-pentene-2-one], for which the ED35 in test [1] (Table I), in test [2] (Table I) and in test [3] was 22 mg/kg in each case.
As to `CC(=O)CC(C)c1ccc(C2CCCCC2)c(Br)c1` (stereo not drawn) [Y, 4-(3-bromo-4-cyclohexyl-phenyl)-2-pentanone], the ED35 in test [2] (Table I) stood at 13 mg/kg.
The same measure, in the same setting: as for `C/C(=C\C(C)O)c1ccc(C2CCCCC2)c(Br)c1` (stereo not drawn) [Z, (e)-4-(3-bromo-4-cyclohexyl-phenyl)-3-pentene-2-ol], the figure is 16 mg/kg.

The record behind these values is patent US3950427A, “Araliphatic ketones and carbinols” (Boehringer Ingelheim GmbH, priority 1973, dated 1976).
